Assay results as given in US11478451B1, “Macrocyclic chlorine substituted indole derivatives” (Bayer Aktiengesellschaft, priority 2017, dated 2022).
Counter-ions that a name gives are not always drawn. Like-named read-outs stand apart in the source and are kept apart here.

What was measured:
SUDHL10 cells [1] = assay: Induction of caspase-3/7 activity (Caspase-Glo 3/7), SUDHL10; assay type: cell-based; conditions: EC50, median, SUDHL10, 3 h treatment
Protocol: (§1) Induction of Caspase-3/7 Activity Upon Treatment of Cells with Selected Compounds
(§2) The BH3-domain of MCL-1 sequesters pro-apoptotic proteins, thereby inhibiting apoptosis. In contrast, MCL-1 inhibitors are expected to antagonize this effect leading to an increase in apoptosis, which can be determined by measuring the activity of caspase-3/7.
(§3) The activity of caspase-3/7 was determined in DLBCL (Diffuse large B-cell lymphoma) cell lines (SUDHL5 and SUDHL10) upon treatment with different compounds, using the Caspase-Glo® 3/7 reagent from Promega (G8092).
(§4) Rim wells were excluded. The cells were incubated for 3 h hours in a humidified incubator at 37° C.
(§5) For the evaluation of the results, the background measured with “medium-only” was subtracted from all other values.

SUDHL5 cells [2] = assay: Induction of caspase-3/7 activity (Caspase-Glo 3/7), SUDHL5; assay type: cell-based; conditions: EC50, median, SUDHL5, 3 h treatment
Protocol: as §1, §2, §3, §4, §5

SUDHL10 cells [3] = assay: Induction of cytotoxicity (CellTiter-Glo, 5 h), SUDHL10; conditions: SUDHL10, 5 h
SUDHL5 cells [4] = assay: Antiproliferation assay (CellTiter-Glo, 72 h), SUDHL5; assay type: cell-based; conditions: Homo sapiens, SU-DHL-5, 72 h, IC50, median; SUDHL5, 72 h; read-out: Antiproli SUDHL5 [M] (median)
Protocol: (§6) Assessment of the Anti-Proliferative Effect of Compounds in Different Cell Lines
(§7) The impact of compounds on the proliferation of different cell lines was assessed using the CellTiter-Glo® Luminescent Cell Viability reagent from Promega (G7573).
(§8) In parallel, cells were plated in a reference (day 0) plate for time zero determination.
(§9) Rim wells were excluded. The cells were incubated for 72 h hours in a humidified incubator at 37° C. The day 0 plate was measured by adding 30 μL/well of CTG solution (CellTiter-Glo® Luminescent Cell Viability reagent, Promega G7573) to time zero wells in the reference plate followed by a 10 minutes incubation and luminescence reading at 0.1 ms. using the PHERAstar FS microplate reader (BMG Labtech).
(§10) After 72 h incubation, the treated plates were measured in the same way as the day 0 plate mentioned above.

AMO-1 cells = assay: Antiproliferation assay (CellTiter-Glo, 72 h), AMO-1; assay type: cell-based; conditions: IC50, median, AMO-1, 72 h, read-out: Antiproli AMO-1 [M] median
Protocol: as §6, §7, §8, §9, §10

SUDHL5 cells [5] = assay: Induction of cytotoxicity (CellTiter-Glo, 5 h), SUDHL5; conditions: SUDHL5, 5 h
[6] = read-out: Cytotox SUDHL10 [M] (median), IC50, median
[7] = read-out: Cytotox SUDHL5 [M] (median), IC50, median

EC50 (SUDHL10 cells [1]) [µM] | EC50 (SUDHL5 cells [2]) [µM] | IC50 (SUDHL5 cells [4]) [M] | EC50 (SUDHL5 cells [2]; Homo sapiens, SU-DHL-5, 3 h) [µM] | EC50 (SUDHL10 cells [1]; listed as 078) [µM] | SMILES | IC50 (SUDHL10 cells [3]; [6]) [M] | IC50 (AMO-1 cells; Homo sapiens, AMO1, 72 h) [M] | IC50 (SUDHL5 cells [5]; Homo sapiens, SU-DHL-5, 5 h, read-out: Cytotox SUDHL5 [M] (median), IC50, median) | IC50 (SUDHL10 cells [3]; Homo sapiens, SU-DHL10, 5 h, read-out: Cytotox SUDHL10 [M] (median), IC50, median) | IC50 (SUDHL5 cells [5]; [7]) [M] | IC50 (AMO-1 cells) [M]
0.12 | 0.13 | – | – | – | CCc1c2c(nn1C)COCC1CC1Cn1c(C(=O)O)c(CCCOc3cccc4cc(F)ccc34)c3ccc(Cl)c-2c31 (single isomer, unassigned; (-)) [Example 105, (−)-3-chloro-4-ethyl-14-{3-[(6-fluoronaphthalen-1-yl)oxy]propyl}-5-methyl-5,7,9a,10,10a,11-hexahydro-9H-cyclopropa[3,4]pyrazolo[4′,3′:9,10][1,6]oxazacycloundecino[8,7,6-hi]indole-13-carboxylic acid N-ethylethanamine salt] | 2.2e-07 | – | – | – | – | –
– | – | 2e-07 | 0.2 | – | CCc1nn(C)c2c1-c1c(Cl)ccc3c(CCCOc4cccc5cc(F)ccc45)c(C(=O)O)n(c13)CCCCN(C)C2 (single isomer, unassigned; enantiomer 1) [Example 40, 4-chloro-3-ethyl-7-{3-[(6-fluoronaphthalen-1-yl)oxy]propyl}-1,14-dimethyl-10,11,12,13,14,15-hexahydro-1H-pyrazolo[3′,4′:8,9][1,6]diazacycloundecino[10,11,1-hi]indole-8-carboxylic acid (Enantiomer 1)] | – | 3.6e-07 | – | – | – | –
– | – | – | 0.67 | 3.8 | Cc1c2c(nn1C)COCC1CCC1Cn1c(C(=O)O)c(CCCOc3cccc4ccccc34)c3ccc(Cl)c-2c31 (single isomer, unassigned; enantiomer 1) [Example 78, 3-chloro-4,5-dimethyl-15-{3-[(naphthalen-1-yl)oxy]propyl}-5,7,9,9a,10,11,11a,12-octahydrocyclobuta[3,4]pyrazolo[4′,3′:9,10][1,6]oxazacycloundecino[8,7,6-hi]indole-14-carboxylic acid (Enantiomer 1)] | – | 3e-06 | 8.2e-07 | 3.1e-06 | – | –
– | – | – | 8 | – | CCc1c2c(nn1C)CN(C)CCCCn1c(C(=O)O)c(CCCOc3cccc4cc(F)ccc34)c3ccc(Cl)c-2c31 (single isomer, unassigned; enantiomer 2) [Example 7, 4-chloro-3-ethyl-7-{3-[(6-fluoronaphthalen-1-yl)oxy]propyl}-2,14-dimethyl-10,11,12,13,14,15-hexahydro-2H-pyrazolo[3′,4′:8,9][1,6]diazacycloundecino[10,11,1-hi]indole-8-carboxylic acid (Enantiomer 2)] | 9.3e-06 | – | – | – | 6.1e-06 | 6.6e-06
6.1 | 5.9 | – | – | – | CCc1c2c(nn1C)COCC(O)CCn1c(C(=O)O)c(CCCOc3cccc4cc(F)ccc34)c3ccc(Cl)c-2c31 (stereo not drawn) [Example 101, 4-chloro-3-ethyl-7-{3-[(6-fluoronaphthalen-1-yl)oxy]propyl}-12-hydroxy-2-methyl-2,10,11,12,13,15-hexahydropyrazolo[4′,3′:9,10][1,6]oxazacycloundecino[8,7,6-hi]indole-8-carboxylic acid-N-ethylethanamine salt] | 7.7e-06 | – | – | – | 7.3e-06 | –
7.8 | – | – | – | – | CCc1c2c(nn1C)COCC(O)CCn1c(C(=O)O)c(CCCOc3cccc4cc(F)ccc34)c3ccc(Cl)c-2c31 (stereo not drawn) [Example 102, 4-chloro-3-ethyl-7-{3-[(6-fluoronaphthalen-1-yl)oxy]propyl}-12-hydroxy-2-methyl-2,10,11,12,13,15-hexahydropyrazolo[4′,3′:9,10][1,6]oxazacycloundecino[8,7,6-hi]indole-8-carboxylic acid-N-ethylethanamine salt] | 8.2e-06 | – | – | – | 8.4e-06 | –
6.3 | 4.3 | – | – | – | CCc1c2c(nn1C)CN(C)CCCn1c(C(=O)O)c(CCCOc3cccc4cc(F)ccc34)c3ccc(Cl)c-2c31 [Example 114, (−)-2-chloro-11-ethyl-1-{3-[(6-fluoronaphthalen-1-yl)oxy]propyl}-7,10-dimethyl-4,5,6,7,8,10-hexahydropyrazolo[3′,4′:7,8][1,5]diazecino[9,10,1-hi]indole-2-carboxylic acid salt] | 5.9e-06 | – | – | – | 5.7e-06 | 4.4e-06
